For data set [1], the system named is cells. The data set can be described thus: Real-time cell growth measurement using Xcelligence. As to conditions: peptides treated in 10 μM, FIG. 30. The class given is cell-based. The procedure:
Cell viability was measured using Xcelligence for in real time observation, and the peptides were treated in 10 μM. […] The results are illustrated in FIG. 30.

Another data set relates to FCHo1 cleavage. The data set can be described thus: Immunoblot of FCHo1 cleavage in A549 cell extract with or without MG132. The format is cell-based, human. Particulars: 1 μM MG132, 16 hours, A549 cells. The procedure:
The cells were dissolved in IP dissolution buffer for 30 min at 4° C. After centrifugation at 17,000×g for 30 minutes, the concentration of the protein was measured, and the same amount of lysate was used for immunoprecipitation. The immunoprecipitation was carried out overnight at 4° C. using anti-FLAG M^2 affinity gel (Sigma-Aldrich). The precipitate was washed three times with washing solution, and the precipitated proteins were separated using SDS-PAGE. Western blotting was carried out using anti-rabbit antibodies conjugated with specific antibodies and secondary anti-mouse IgG Veriblot or horseradish peroxidase. The results were visualized using a chemiluminescence detector (Atto Ez-Capture MG).
To test the potential involvement of specific proteases to cleave FCHo1, the cells were treated with 1 μM MG132, a protease inhibitor for 16 hours. Immunoblotting of the A549 cell extract was performed in the presence or absence of the MG132 protease inhibitor, and the results are illustrated in FIG. 5.

In data set [2] the test system is cells. The data set can be described thus: Intracellular uptake of biotin-conjugated peptides (streptavidin-488, CLSM). The format is cell-based. Particulars: biotin-conjugated peptide, no carrier or CPP, FIG. 29. The procedure: Biotin-conjugated peptides were treated to cells and fixed on the cells, followed by reaction with streptavidin-488 fluorescent dye, followed by observation with CLSM. The results are illustrated in FIG. 29.

For a further data set, the target named is T1, Akt1 (Homo sapiens, UniProt P31749).
T1 construct: After treating with the cell lysates; endogenous in cells
T1 sequence (P31749 whole entry): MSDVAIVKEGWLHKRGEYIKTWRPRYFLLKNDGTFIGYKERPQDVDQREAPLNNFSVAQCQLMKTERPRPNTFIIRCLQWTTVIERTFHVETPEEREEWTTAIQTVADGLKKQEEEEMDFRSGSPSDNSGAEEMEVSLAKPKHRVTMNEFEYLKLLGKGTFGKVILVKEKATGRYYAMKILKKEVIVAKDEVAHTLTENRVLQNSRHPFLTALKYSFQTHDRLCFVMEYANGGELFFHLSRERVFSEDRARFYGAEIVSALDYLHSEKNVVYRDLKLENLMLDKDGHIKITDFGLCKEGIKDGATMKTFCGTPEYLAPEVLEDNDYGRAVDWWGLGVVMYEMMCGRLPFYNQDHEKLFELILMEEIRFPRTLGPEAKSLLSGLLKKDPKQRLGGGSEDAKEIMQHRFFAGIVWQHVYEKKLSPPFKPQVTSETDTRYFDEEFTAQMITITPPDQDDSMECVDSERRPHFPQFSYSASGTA
The data set can be described thus: In vitro binding of biotin-conjugated FCHo1-derived peptides to Akt1 (streptavidin plate, cell lysates, Akt1 antibody). Particulars: biotin-conjugated peptide on streptavidin plate, FIG. 28. The text has this: To confirm the binding affinity between Akt1 and Akt1 motif-containing FCHo1 amino acid sequence-derived peptides, biotin was conjugated to peptides to complete the synthetization. The peptides were reacted and attached to on the streptavidin-attached plate. After treating with the cell lysates, the binding affinity of the peptide and Akt1 was confirmed by the Akt1 antibody. The experiment process and its result of confirming in vitro binding affinity of Akt1 according to respective peptides derived from FCHo1 binding sites are illustrated in FIG. 28.

The subject of a further data set is mouse FCHo1. The data set can be described thus: FCHo1 inhibitory effect of shRNA sequences acting on mouse FCHo1. Particulars: among four shRNA sequences, SEQ ID NOs: 1 to 4. The procedure: (§1) H&E slides were prepared to confirm whether adenoma and hyperplasia were reduced. The shFCHo1 was used for FCHo1 cleavage inhibition. The sequence thereof is represented in SEQ ID NOs: 1 to 4 based on FIG. 26. […] Therefore, this was used to perform this experiment.

For data set [3], the system named is lung cancer model mouse (K-ras). The data set can be described thus: Anticancer effect of aerosol-delivered lentiviral FCHo1 vectors in lung cancer model mouse. Particulars: K-ras female mice, lentiviral vector inhaled 8 times for 4 weeks, H&E slides, 5 mice per group. The format is in vivo. The procedure:
Lentiviral vectors were prepared for the full-length, mutation type and deletion type of FCHo1 and transferred to lung cancer model mouse in a non-invasive aerosol method. Then their anticancer effects were confirmed. Example 8 confirmed that the sites involved in FCHo1 cleavage in human cells were FCHo1^S570A and FCHo1^del563-564. Therefore, corresponding positions were confirmed in mouse FCHo1. It was confirmed that S570A corresponded to S554A and del563-564 corresponded to del544-545. […] Then, the anticancer effects thereof were compared. The results are illustrated in FIG. 25.
as §1

A further data set has as its system A549 cells. The data set can be described thus: Midbody formation in A549 cells expressing FCHo1 constructs (CLSM, MKLP1 staining). The format is cell-based, human. As to conditions: A549 cells in mitosis, compared with wild-type FCHo1. The procedure:
A549 cells were placed in 8-well chamber cover glasses or high-precision cover glasses and were fixed with 3% paraformaldehyde for 10 minutes at room temperature, permeabilized with 0.5% TRITON® X-100 (Sigma-Aldrich) for 5 min, blocked for 30 minutes. Then, the cells were incubated with primary or secondary antibodies in blocking solution (PBS with 0.1% saponin and 3% BSA). Alexa Fluor 647 conjugated anti-rabbit secondary antibody and an oxygen scavenging system (0.5 mg/ml glucose oxidase, 40 μg/ml catalase, 10% glucose, pH 7.4) were used for stochastic optical reconstruction microscopy (dSTORM) imaging. Before imaging, 30 mM mercaptoethylamine ([…]; Sigma) was added to obtain a final thiol concentration of 10-200 mM. All dSTORM and SIM images were obtained from Carl Zeiss ELYRA PS.1 (super-resolution microscopy), and all CLSM images were obtained from the Carl Zeiss LSM710 (confocal laser scanning microscope). […]
In the analysis using the synchronization method, the cells were stained with MKLP1 antibody for the central spindle or midbody type analyses. The rates of cells in anaphase (central spindle) and telophase (midbody) were quantified via CLSM images: FCHo1 siRNA (n=318), wt FCHo1 (n=702), FCHo1 Δ563-564 (n=756) and FCHo1 Δ531-589 (n=1952). […]

Marks after values point to notes of the source that are not given here. Ends that are not written are not given here. Peptide text beside a SMILES is read from it. * marks the point of attachment. Cbz = O=C(OCc1ccccc1)*

On to “560-567: peptide derived from the FCHo1 amino acid sequence, residues 560-567 (PPRRLRSR; UniProt O14526 560-567, looked up, fragment)”, for which the “inhibitory effect on cell growth” value in the data set with cells [1] is listed as “inhibitory effects on the cell growth”.

Consider `CC(C)C[C@@H](C=O)NC(=O)[C@H](CC(C)C)NC(=O)[C@H](CC(C)C)NC(=O)OCc1ccccc1` [MG132] (Cbz-Leu-Leu-Leu-aldehyde), for which the “cleaved FCHo1 protein (immunoblot)” value in the data set with FCHo1 cleavage is reported as “completely disappeared”.

PPRRLRSRKVSC [560-571, PPRRLRSRKVSC]: the “absorption into a cell” value in the data set on cells [2] is listed as “increase in absorption into a cell in a concentration-dependent manner”. For RRLRSRKVSC (FCHo1 fragment) [562-571], the “inhibitory effect on cell growth” value in the data set with cells [1] was “inhibitory effects on the cell growth”. In addition, the Akt1 binding affinity result with Akt1 is “significantly increased”. In the case of “shFCHo1: shRNA acting on mouse FCHo1, SEQ ID NO: 2 (GAGAGAACACCAGCCAGAAUCUCUUCUGGCUGGUGUUCUCUC; hairpin, further chemistry not given here)”, the FCHo1 inhibitory effect entry in the data set with mouse FCHo1 was “most significant FCHo1 inhibitory effect”. For the same molecule, in data set [3], the “No. of Adenocarcinoma” value is given as 0.20 ± 0.45, the “No. of Adenoma” value came out at 0.60 ± 0.55 and the “No. of hyperplasia foci” value is 0.60 ± 0.55**^,#.

B1: Δ563-564: human FCHo1 with 563-564aa deleted (MMP-9 cleavage site), expressed in A549 cells (protein)
chain: MSYFGEHFWGEKNHGFEVLYHSVKQGPISTKELADFIRERATIEETYSKAMAKLSKLASNGTPMGTFAPLWEVFRVSSDKLALCHLELTRKLQDLIKDVLRYGEEQLKTHKKCKEEVVSTLDAVQVLSGVSQLLPKSRENYLNRCMDQERLRRESTSQKEMDKAETKTKKAAESLRRSVEKYNSARADFEQKMLDSALRFQAMEETHLRHMKALLGSYAHSVEDTHVQIGQVHEEFKQNIENVSVEMLLRKFAESKGTGREKPGPLDFEAYSAAALQEAMKRLRGAKAFRLPGLSRREREPEPPAAVDFLEPDSGTCPEVDEEGFTVRPDVTQNSTAEPSRFSSSDSDFDDEEPRKFYVHIKPAPARAPACSPEAAAAQLRATAGSLILPPGPGGTMKRHSSRDAAGKPQRPRSAPRTSSCAERLQSEEQVSKNLFGPPLESAFDHEDFTGSSSLGFTSSPSPFSSSSPENVEDSGLDSPSHAAPGPSPDSWVPRPGTPQSPPSCRAPPPEARGIRAPPLPDSPQPLASSPGPWGLEALAGGDLMPAPADPTAREGLAAPPRRSRKVSCPLTRSNGDLSRSLSPSPLGSSAASTALERPSFLSQTGHGVSRGPSPVVLGSQDALPIATAFTEYVHAYFRGHSPSCLARVTGELTMTFPAGIVRVFSGTPPPPVLSFRLVHTTAIEHFQPNADLLFSDPSQSDPETKDFWLNMAALTEALQRQAEQNPTASYYNVVLLRYQFSRPGPQSVPLQLSAHWQCGATLTQVSVEYGYRPGATAVPTPLTNVQILLPVGEPVTNVRLQPAATWNLEEKRLTWRLPDVSEAGGSGRLSASWEPLSGPSTPSPVAAQFTSEGTTLSGVDLELVGSGYRMSLVKRRFATGMYLVSC
modifications: Fcho1 delta563-564
notes: human FCHo1 with 563-564aa deleted (MMP-9 cleavage site), expressed in A549 cells
For B1, the midbody formation result in the data set on A549 cells is given as “inhibited the midbody formation”.
